Where two headings read alike, the source gives them in different places. Bridge positions count the residues as written; N and C are the ends. Square brackets hold non-standard residues; d marks the D form. Peptide text beside a SMILES is read from it. * marks the point of attachment. Heptanoyl(5-Me) = CCC(C)CCCC(=O)*; Dab = NCC[C@H](N)C(=O)O
Tests used:
A. junii 1397597 = assay: Checkerboard fusidic acid (FD) and colistin sulfate (CS), MIC/FIC and MBC/FBC; assay type: cell-based, Acinetobacter junii
Procedure: (§1) Checkerboard assays between fusidic acid (FD) and colistin sulfate (CS) with a bacterial load 5(1-10)*10^5 CFU/ml in cationic adapted Mueller Hinton broth (CAMHB). • a. Antimicrobial stock solutions were prepared using sterile distilled water; • b. CS was added along the ordinate; FD was added along the abscissa to 96 well, flat bottom, polystyrene panels with no treatment. Colistin alone was tested in triplicates; • c. Serial 2-fold dilutions starting with 640 […] CS and 640 μg/ml FD were made; 15 μl volume of the serial dilutions were added for each agent to the appropriate wells—final volume at 30 μl; • d. For each agent tested alone an additional 15 μl media was added to the well. 30 μl were added in control wells where none of the agent was tested. The negative control well contains 150 μl media without any additions; • e. From an overnight bacterial culture in tryptic soy broth, 100 μL was added to 10 mL of fresh tryptic soy broth. This was then incubated at 37° C. for 1.5 hour at 180 rpm; • f. Bacteria in 120 μl CAMHB were added to each well (end concentration 5(1-10)*10^5 CFU/ml); • g. Plates were incubated at 37° C. in an ambient air incubator for 24 h • h. Turbidity at OD600 is determined with a plate photometer • i. By using a one-time inoculator 3 μl from each well of the 96-well plate were transferred to three blood agar plates. The plates were incubated over night at 37° C. in an ambient air incubator; • j. MIC values are defined as lowest concentration which restricts bacterial growth to OD600≤0.1; • k. MBC values were determined by visual reading the lowest concentration which inhibits 99.9% of the growth of bacteria in the wells; • l. Determination of the fractional inhibitory concentration (FIC) index and fractional bactericidal concentration (FBC) index and characterization of antimicrobial interactions was assessed;
(§2) FIC calculation was carried out as: (MIC of drug A, tested in combination)/(MIC of drug A, tested alone)+(MIC of drug B, tested in combination)/(MIC of drug B, tested alone). FBC calculation was carried out just as well;
(§3) Interactive categories were calculated from checkerboard analysis using MIC results from testing each agent alone and MIC results from the combination wells adjacent to the wells with growth in them.
(§4) Determination of the fractional inhibitory concentration (FIC) index and fractional bactericidal concentration (FBC) index and characterization of antimicrobial interactions was assessed:
(§5) (ii) Indifference; FIC/FBC>0.5 to <4.0
(§6) (iii) Antagonism; FIC/FBC≥4.0
a. Acinetobacter junii 1391597 (IHMA), colistin resistant (CS 2/2-2/8)

S. maltophilia 1221783 = assay: Checkerboard colistin sulphate (CS) plus teicoplanin (TP), MIC/FIC and MBC/FBC; assay type: cell-based, Stenotrophomonas maltophilia; conditions: agent alone, CAMHB, 5*10^5 CFU/ml
Procedure: Checkerboard analysis to determine minimal inhibitory concentration (MIC)/fractional inhibitory concentration (FIC) and minimal bacterial concentration (MBC)/fractional bacterial concentration (FBC) values of colistin sulphate (CS) plus teicoplanin (TP) for 6 Gram-negative strains with a bacterial load 5(1-10)*10^5 CFU/ml in a cation-adjusted Mueller-Hinton broth (CAMHB). • a. Antimicrobial stock solutions were prepared using sterile distilled water • b. CS was added along the ordinate; TP was added along the abscissa to 96 well, flat bottom, polystyrene panels with no treatment. Colistin alone was tested in triplicates. • c. Serial 2-fold dilutions starting with 640 μg/ml CS and 640 μg/ml TP were made; 15 μl volume of the serial dilutions were added for each agent to the appropriate wells; final volume at 30 μl • d. For each agent tested alone an additional 15 μl media was added to the well. 30 μl were added in control wells where none of the agent was tested. The negative control well contains 150 μl media without any additions • e. From an overnight bacterial culture in tryptic soy broth, 100 μL was added to 10 mL of fresh tryptic soy broth. This was then incubated at 37° C. for 1.5 hour at 180 rpm. • f. Bacteria in 120 μl CAMHB were added to each well (end concentration 5(1-10)*10^5 CFU/ml) • g. Plates were incubated at 37° C. in an ambient air incubator for 24 h • h. Turbidity at OD600 is determined with a plate photometer • i. By using a one-time inoculator 3 μl from each well of the 96-well plate were transferred to three blood agar plates. The plates were incubated over night at 37° C. in an ambient air incubator • j. […] Determination of the fractional inhibitory concentration (FIC) index and fractional bactericidal concentration (FBC) index and characterization of antimicrobial interactions was assessed […]
Interactive categories were calculated from checkerboard analysis using MIC results from testing each agent alone and MIC results from the combination wells adjacent to the wells with growth in them […]

S. maltophilia 1237289 = assay: Checkerboard fusidic acid (FD) and colistin sulfate (CS), MIC/FIC; assay type: cell-based, Stenotrophomonas maltophilia; conditions: for MIC: S. maltophilia 1237289, agent alone, CAMHB, 1*10^6 CFU/ml
Procedure: as §1, §2, §3, §4, §5, §6
e. Stenotrophomonas maltophilia 1237289 (IHMA), colistin resistant (CS 2/4-4/8-8/8)

[1] = system: A. nosocomialis strain (1204194 IHMA); assay: Colistin MIC of the susceptible strain used in the mouse model; assay type: cell-based; conditions: Acinetobacter nosocomialis; colistin susceptible A. nosocomialis strain 1204194 IHMA
Procedure: One colistin susceptible (MIC 1 mg/L) A. nosocomialis strain (1204194 IHMA) and one colistin resistant (MIC 4 mg/L) A. nosocomialis strain (1461911 IHMA) are used. […] Fresh brain heart infusion broth (Merck, Darmstadt, Germany) bacterial cultures, in an aerobic atmosphere in the logarithmic growth phase (4-5 hours) at 37° C., are adjusted to a concentration of 1.0×10^6 colony forming units (CFU)/mL, as verified by both spectrophotometry (OD600 0.01-0.02 nm) and colony counting.

A. guillouiae 1285286 = assay: Checkerboard fusidic acid (FD) and colistin sulfate (CS), MIC/FIC and MBC/FBC; assay type: cell-based, Acinetobacter guillouiae
Procedure: as §1, §2, §3, §4, §5, §6
d. Acinetobacter guillouiae 1285286 (IHMA), colistin resistant (2xCS 2/4)

**Q.** How did the MIC (A. junii 1397597; A. junii 1397597, agent alone, CAMHB, 1*10^6 CFU/ml, 24 h) turn out when `CCC(C)CCCC(=O)N[C@@H](CCN)C(=O)N[C@H](C(=O)N[C@@H](CCN)C(=O)N[C@H]1CCNC(=O)[C@H]([C@@H](C)O)NC(=O)[C@H](CCN)NC(=O)[C@H](CCN)NC(=O)[C@H](CC(C)C)NC(=O)[C@@H](CC(C)C)NC(=O)[C@H](CCN)NC1=O)[C@@H](C)O` (stereo partly drawn) [CS, colistin sulphate] ({Heptanoyl(5-Me)}-[Dab]T[Dab][Dab][Dab][dL]L[Dab][Dab]T; lactam 4-C) was run?
**A.** The MIC was 2 mg/1l.

**Q.** What about the MBC (A. junii 1397597; Acinetobacter junii, 1397597, A. junii 1397597, agent alone, CAMHB, 1*10^6 CFU/ml) of the same molecule?
**A.** The MBC was 2 µg/mL.

**Q.** What about the MIC (A. junii 1397597; Acinetobacter junii, 1397597, organism list of Example 3, repeated determinations, read-out: Colistin CS MIC) of the same molecule?
**A.** Its MIC is 2 µg/mL.

**Q.** What about the MIC (S. maltophilia 1221783; Stenotrophomonas maltophilia, 1221783, 24 h, read-out: MIC) of the same molecule?
**A.** Its MIC is at most 0.5 µg/mL.

**Q.** And the MIC (S. maltophilia 1221783; 24 h)?
**A.** The MIC was 0.25 µg/mL.

**Q.** And the MIC (S. maltophilia 1237289; 24 h)?
**A.** Its MIC is 1 mg/1l.

**Q.** And the MIC (S. maltophilia 1237289; after 48 h growth (values in brackets))?
**A.** The MIC was “(4) mg/1l”.

**Q.** And the MBC (S. maltophilia 1237289; Stenotrophomonas maltophilia, 1237289, organism list of Example 3, Stenotrophomonas maltophilia 1237289, repeated determinations)?
**A.** Its MBC is 4 µg/mL.

**Q.** What about the MIC [1] of the same molecule?
**A.** The MIC was 1 µg/mL.

**Q.** What about the MIC (A. guillouiae 1285286; A. guillouiae 1285286, agent alone, CAMHB, 1*10^6 CFU/ml, 24 h) of the same molecule?
**A.** Its MIC is 2 mg/1l.

**Q.** And the MBC (A. guillouiae 1285286; Acinetobacter guillouiae, 1285286, A. guillouiae, agent alone, CAMHB, 1*10^6 CFU/ml, read-out: MBC)?
**A.** The MBC was 4 µg/mL.

**Q.** What about the MBC (A. guillouiae 1285286; organism list of Example 3, Acinetobacter guillouiae 1285286, 2x, read-out: Colistin CS MBC) of the same molecule?
**A.** Its MBC is 4 µg/mL.

**Q.** And the MIC (A. guillouiae 1285286; organism list of Example 3, Acinetobacter guillouiae 1285286, 2x, read-out: Colistin CS MIC)?
**A.** Its MIC is 2 µg/mL.
